{"source": "ChEMBL document CHEMBL4825691", "about": "“Antimicrobial, modulatory, and antibiofilm activity of tt-farnesol on bacterial and fungal strains of importance to human health” (2021)", "assay_type_in_all_cases": "functional", "key": {"[1]": {"test_system": "Staphylococcus aureus", "assay": "Antimicrobial activity against Staphylococcus aureus ATCC […] assessed assessed as reduction in bacterial growth at 1/2 times of drug MIC in the presence of Oxacillin by microdilution method"}, "[2]": {"test_system": "Staphylococcus epidermidis", "assay": "Ratio of MBC to MIC against Staphylococcus epidermidis ATCC 12228"}, "[3]": {"test_system": "Staphylococcus aureus", "assay": "Antibacterial activity against Staphylococcus aureus MED 55 assessed as inhibition of bacterial growth incubated for 24 hrs by microdilution assay"}, "[4]": {"test_system": "Enterococcus durans", "assay": "Antibacterial activity against Enterococcus durans BIO 0114 assessed as inhibition of bacterial growth incubated for 24 hrs by microdilution assay"}, "[5]": {"test_system": "Enterococcus faecalis", "assay": "Bactericidal activity against Enterococcus faecalis ATCC 51299 assessed as bacterial killing incubated for 24 hrs by microdilution assay"}, "[6]": {"test_system": "Streptococcus agalactiae", "assay": "Bactericidal activity against Streptococcus agalactiae ATCC 13813 assessed as bacterial killing incubated for 24 hrs by microdilution assay"}, "[7]": {"test_system": "Stenotrophomonas maltophilia", "assay": "Antibacterial activity against Stenotrophomonas maltophilia EM 0104assessed as inhibition of bacterial growth incubated for 24 hrs by microdilution assay"}, "[8]": {"test_system": "Escherichia coli", "assay": "Antibacterial activity against Escherichia coli EAEC I 4913 assessed as inhibition of bacterial growth incubated for 24 hrs by microdilution assay"}, "[9]": {"test_system": "Proteus mirabilis", "assay": "Antibacterial activity against Proteus mirabilis ATCC 25933 assessed as inhibition of bacterial growth incubated for 24 hrs by microdilution assay"}, "[10]": {"test_system": "Serratia marcescens", "assay": "Antibacterial activity against Serratia marcescens ATCC 13880 assessed as inhibition of bacterial growth incubated for 24 hrs by microdilution assay", "conditions": "subsp. marcescens ATCC 13880"}, "[11]": {"test_system": "Enterococcus faecalis", "assay": "Antibacterial activity against Enterococcus faecalis ATCC 6569 assessed as inhibition of bacterial growth incubated for 24 hrs by microdilution assay"}, "[12]": {"test_system": "Escherichia coli", "assay": "Antibacterial activity against Escherichia coli STEC 2C1 assessed as inhibition of bacterial growth incubated for 24 hrs by microdilution assay"}, "[13]": {"test_system": "Enterococcus durans", "assay": "Ratio of MBC to MIC against Enterococcus durans BIO 0114"}, "[14]": {"test_system": "Streptococcus agalactiae", "assay": "Antibiofilm activity against drug-resistant Streptococcus agalactiae ATCC 13813 assessed as inhibition of biofilm formation incubated for 24 hrs by crystal violet staining based microtiter plate method"}, "[15]": {"test_system": "Staphylococcus aureus", "assay": "Bactericidal activity against Staphylococcus aureus ATCC 43300 assessed as bacterial killing incubated for 24 hrs by microdilution assay"}, "[16]": {"test_system": "Staphylococcus aureus", "assay": "Antibacterial activity against Staphylococcus aureus ATCC 43300 assessed as inhibition of bacterial growth incubated for 24 hrs by microdilution assay"}, "[17]": {"test_system": "Enterococcus faecalis", "assay": "Ratio of MBC to MIC against Enterococcus faecalis ATCC 51299"}, "[18]": {"test_system": "Staphylococcus aureus", "assay": "Antimicrobial activity against Staphylococcus aureus MED 55 assessed assessed as reduction in bacterial growth at 1/4 times of drug MIC in the presence of vancomycin by microdilution method"}, "[19]": {"test_system": "Staphylococcus aureus", "assay": "Antimicrobial activity against Staphylococcus aureus MED 55 assessed assessed as reduction in bacterial growth at 1/4 times of drug MIC in the presence of Oxacillin by microdilution method"}, "[20]": {"test_system": "Streptococcus pyogenes", "assay": "Antibacterial activity against Streptococcus pyogenes ATCC 19615 assessed as inhibition of bacterial growth incubated for 24 hrs by microdilution assay"}, "[21]": {"test_system": "Streptococcus pyogenes", "assay": "Antibiofilm activity against drug-resistant Streptococcus pyogenes ATCC 19615 assessed as inhibition of biofilm formation incubated for 24 hrs by crystal violet staining based microtiter plate method"}, "[22]": {"test_system": "Escherichia coli", "assay": "Antibacterial activity against Escherichia coli ATCC 35218 assessed as inhibition of bacterial growth incubated for 24 hrs by microdilution assay"}, "[23]": {"test_system": "Staphylococcus aureus", "assay": "Antibacterial activity against Staphylococcus aureus ATCC 29213 assessed as inhibition of bacterial growth incubated for 24 hrs by microdilution assay"}, "[24]": {"test_system": "Enterococcus faecalis", "assay": "Antibiofilm activity against drug-resistant Enterococcus faecalis ATCC 51299 assessed as inhibition of biofilm formation incubated for 24 hrs by crystal violet staining based microtiter plate method"}, "[25]": {"test_system": "Streptococcus mutans", "assay": "Ratio of MBC to MIC against Streptococcus mutans ATCC 25175"}, "[26]": {"test_system": "Staphylococcus aureus", "assay": "Bactericidal activity against Staphylococcus aureus MED 55 assessed as bacterial killing incubated for 24 hrs by microdilution assay"}, "[27]": {"test_system": "Staphylococcus aureus", "assay": "Antimicrobial activity against […] assessed assessed as reduction in bacterial growth at 1/4 times of drug MIC in the presence of Oxacillin by microdilution method"}, "[28]": {"test_system": "Staphylococcus epidermidis", "assay": "Bactericidal activity against Staphylococcus epidermidis ATCC 12228 assessed as bacterial killing incubated for 24 hrs by microdilution assay"}, "[29]": {"test_system": "Klebsiella pneumoniae", "assay": "Antibacterial activity against Klebsiella pneumoniae ATCC 1705 assessed as inhibition of bacterial growth incubated for 24 hrs by microdilution assay"}, "[30]": {"test_system": "Streptococcus mutans", "assay": "Bactericidal activity against Streptococcus mutans ATCC 25175 assessed as bacterial killing incubated for 24 hrs by microdilution assay"}, "[31]": {"test_system": "Klebsiella pneumoniae", "assay": "Antibacterial activity against Klebsiella pneumoniae ATCC 700603 assessed as inhibition of bacterial growth incubated for 24 hrs by microdilution assay"}, "[32]": {"test_system": "Streptococcus mutans", "assay": "Antimicrobial activity against Streptococcus mutans ATCC 25175 assessed assessed as reduction in bacterial growth at 1/4 times of drug MIC in the presence of Ampicillin by microdilution method"}, "[33]": {"test_system": "Staphylococcus epidermidis", "assay": "Antibacterial activity against Staphylococcus epidermidis ATCC 12228 assessed as inhibition of bacterial growth incubated for 24 hrs by microdilution assay"}, "[34]": {"test_system": "Streptococcus sobrinus", "assay": "Bactericidal activity against Streptococcus sobrinus ATCC 27351 assessed as bacterial killing incubated for 24 hrs by microdilution assay"}, "[35]": {"test_system": "Staphylococcus epidermidis", "assay": "Antibacterial activity against Staphylococcus epidermidis 70 D assessed as inhibition of bacterial growth incubated for 24 hrs by microdilution assay"}, "[36]": {"test_system": "Streptococcus sobrinus", "assay": "Antimicrobial activity against Streptococcus sobrinus ATCC 27351 assessed assessed as reduction in bacterial growth at 1/8 times of drug MIC in the presence of Ampicillin by microdilution method"}, "[37]": {"test_system": "Staphylococcus aureus", "assay": "Antibiofilm activity against drug-resistant Staphylococcus aureus MED 55 assessed as inhibition of biofilm formation incubated for 24 hrs by crystal violet staining based microtiter plate method"}, "[38]": {"test_system": "Staphylococcus aureus", "assay": "Antimicrobial activity against Staphylococcus aureus MED 55 assessed assessed as reduction in bacterial growth at 1/8 times of drug MIC in the presence of vancomycin by microdilution method"}, "[39]": {"test_system": "Staphylococcus epidermidis", "assay": "Antimicrobial activity against Staphylococcus epidermidis 70 D assessed assessed as reduction in bacterial growth at 1/4 times of drug MIC in the presence of vancomycin by microdilution method"}, "[40]": {"test_system": "Streptococcus sobrinus", "assay": "Antibiofilm activity against drug-resistant Streptococcus sobrinus ATCC 27351 assessed as inhibition of biofilm formation incubated for 24 hrs by crystal violet staining based microtiter plate method"}, "[41]": {"test_system": "Escherichia coli", "assay": "Antibacterial activity against Escherichia coli EHEC 933 assessed as inhibition of bacterial growth incubated for 24 hrs by microdilution assay"}, "[42]": {"test_system": "Staphylococcus epidermidis", "assay": "Antimicrobial activity against Staphylococcus epidermidis ATCC 12228 assessed assessed as reduction in bacterial growth at 1/8 times of drug MIC in the presence of Oxacillin by microdilution method"}, "[43]": {"test_system": "Streptococcus sobrinus", "assay": "Antibacterial activity against Streptococcus sobrinus ATCC 27351 assessed as inhibition of bacterial growth incubated for 24 hrs by microdilution assay"}}}
{"smiles": "CC(C)=CCC/C(C)=C/CC/C(C)=C/CO", "note": "[FARNESOL]", "values": [{"measurement": "MIC", "setting": "[1]", "result": 1, "unit": "µg/mL"}, {"measurement": "Ratio", "setting": "[2]", "result": ">4"}, {"measurement": "MIC", "setting": "[3]", "result": 64, "unit": "µg/mL"}, {"measurement": "MIC", "setting": "[4]", "result": 64, "unit": "µg/mL"}, {"measurement": "MBC", "setting": "[5]", "result": "> 512", "unit": "µg/mL"}, {"measurement": "MBC", "setting": "[6]", "result": 32, "unit": "µg/mL"}, {"measurement": "MIC", "setting": "[7]", "result": "> 1020", "unit": "µg/mL"}, {"measurement": "MIC", "setting": "[8]", "result": "> 1020", "unit": "µg/mL"}, {"measurement": "MIC", "setting": "[9]", "result": "> 1020", "unit": "µg/mL"}, {"measurement": "MIC", "setting": "[10]", "result": "> 1020", "unit": "µg/mL"}, {"measurement": "MIC", "setting": "[11]", "result": "> 1020", "unit": "µg/mL"}, {"measurement": "MIC", "setting": "[12]", "result": "> 1020", "unit": "µg/mL"}, {"measurement": "Ratio", "setting": "[13]", "result": ">4"}, {"measurement": "MIC", "setting": "[14]", "result": 4, "unit": "µg/mL"}, {"measurement": "MBC", "setting": "[15]", "result": 512, "unit": "µg/mL"}, {"measurement": "MIC", "setting": "[16]", "result": 128, "unit": "µg/mL"}, {"measurement": "Ratio", "setting": "[17]", "result": ">4"}, {"measurement": "MIC", "setting": "[18]", "result": 2, "unit": "µg/mL"}, {"measurement": "MIC", "setting": "[19]", "result": 128, "unit": "µg/mL"}, {"measurement": "MIC", "setting": "[20]", "result": 16, "unit": "µg/mL"}, {"measurement": "MIC", "setting": "[21]", "result": 16, "unit": "µg/mL"}, {"measurement": "MIC", "setting": "[22]", "result": "> 1020", "unit": "µg/mL"}, {"measurement": "MIC", "setting": "[23]", "result": "> 1020", "unit": "µg/mL"}, {"measurement": "MIC", "setting": "[24]", "result": 128, "unit": "µg/mL"}, {"measurement": "Ratio", "setting": "[25]", "result": 4}, {"measurement": "MBC", "setting": "[26]", "result": 128, "unit": "µg/mL"}, {"measurement": "MIC", "setting": "[27]", "result": 8, "unit": "µg/mL"}, {"measurement": "MBC", "setting": "[28]", "result": "> 128", "unit": "µg/mL"}, {"measurement": "MIC", "setting": "[29]", "result": "> 1020", "unit": "µg/mL"}, {"measurement": "MBC", "setting": "[30]", "result": "> 512", "unit": "µg/mL"}, {"measurement": "MIC", "setting": "[31]", "result": "> 1020", "unit": "µg/mL"}, {"measurement": "MIC", "setting": "[32]", "result": 0.5, "unit": "µg/mL"}, {"measurement": "MIC", "setting": "[33]", "result": 32, "unit": "µg/mL"}, {"measurement": "MBC", "setting": "[34]", "result": 16, "unit": "µg/mL"}, {"measurement": "MIC", "setting": "[35]", "result": 64, "unit": "µg/mL"}, {"measurement": "MIC", "setting": "[36]", "result": 0.125, "unit": "µg/mL"}, {"measurement": "MIC", "setting": "[37]", "result": 2, "unit": "µg/mL"}, {"measurement": "MIC", "setting": "[38]", "result": 2, "unit": "µg/mL"}, {"measurement": "MIC", "setting": "[39]", "result": 2, "unit": "µg/mL"}, {"measurement": "MIC", "setting": "[40]", "result": 8, "unit": "µg/mL"}, {"measurement": "MIC", "setting": "[41]", "result": "> 1020", "unit": "µg/mL"}, {"measurement": "MIC", "setting": "[42]", "result": 0.25, "unit": "µg/mL"}, {"measurement": "MIC", "setting": "[43]", "result": 8, "unit": "µg/mL"}]}
